For one test, the target named is PI3KC2α Δ1-298 (Homo sapiens (Human), UniProt O00443). Description: ADP-Glo kinase assay with purified PI3KC2α Δ1-298. It is filed as biochemical. In short, it runs like this: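 Purified human PI3KC2α Δ1-298 (10 ng/μl) with liver PI (200 μM) and ATP (40 μM), 20 min kinase reaction; ADP formed read by ADP-Glo luminescence after 40 min ATP depletion. Screening compounds at 10 μM; reactions lacking PI served as negative control.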
On the technique in general: In ADP-Glo the light output rises with the ADP produced.

The subject of test [1] is commercially available lipid kinases and the related mTOR protein kinase. Description: In vitro kinase profiling at fixed 10 μM (lipid kinase panel, mTOR, general kinase panel). Particulars: 10 μM compound; listed as C2a_Inh3. Format: biochemical. As to the method:
FIG. 7. In vitro kinase activity in presence of 10 μM compounds. (A-C) The specificity of initial screening hits and C2a_inh1-3 was validated by incubation with available lipid kinases. […] (D) Selectivity may be modulated by modifying the R11 substituent of Formula 1. […]
We firstly analyzed the specificity of C2a_inh1 (dihydropteridinone derived compound) and other initial screening hits (eg. quinolone derived compound) in vitro. […]

Test [2] deals with eGFP-clathrin expressing Cos7 cells. Description: CCP dynamics by TIRF microscopy. Format: cell-based. The note with it: treatment for 1 h, vs DMSO. As to the method:
(§1) FIG. 8. Inhibition of PI3KC2α in living cells upon treatment with C2a_inh1-3. (A) PI3KC2α inhibition impairs CCP dynamics analyzed by TIRF microscope. eGFP-clathrin expressing Cos7 cells were treated by DMSO or C2a_Inh3 for 1 h and imaged by TIRF microscope. […] (B) C2a_Inh3 treatment of eGFP-SNX9 AS OE HeLa cells. […] Scale bar, 10 μm or 2 μm (inset). (C) Quantification of the results depicted in B, indicating the percentage of cells containing membrane tubules (N=3, statistical analysis with one-way ANOVA, **** is for p<0.0001).
To test if the validated compounds are cell membrane permeable and, thus, can be used as medicaments and in cell-based experiments, the inventors analyzed clathrin-mediated endocytosis of transferrin in the presence of PI3KC2α inhibitors or DMSO as a solvent control. […] Further, the inventors monitored the CCP dynamics in cells with PI3KC2α inhibitor (C2a_Inh3) treatment for 1 h.

Test [3] has as its system HeLa cells overexpressing SNX9 AS. Description: SNX9 AS membrane recruitment / tubulation. Format: cell-based. Particulars: eGFP-SNX9 AS OE HeLa cells, vs DMSO. On the procedure: as §1
SNX9 is a main effector protein of PI3KC2α dependent PI(3,4)P2 production. […] HeLa cells overexpressing SNX9 AS were treated with C2a_inh_3 or DMSO as a control.

Where [4] appears, read: read-out: IC50 (PI3KC2α; ADP-Glo™ assay).

“Also recorded” adds a separate entry of the source. Where two headings read alike, the source gives them in different places.

For orientation: IC50 means the point on the concentration scale where inhibition reaches its midpoint. As a reminder, the inhibition is the percentage by which the read-out fell short of the control.

PI3KC2α Δ1-298, sequence (O00443 299-1686): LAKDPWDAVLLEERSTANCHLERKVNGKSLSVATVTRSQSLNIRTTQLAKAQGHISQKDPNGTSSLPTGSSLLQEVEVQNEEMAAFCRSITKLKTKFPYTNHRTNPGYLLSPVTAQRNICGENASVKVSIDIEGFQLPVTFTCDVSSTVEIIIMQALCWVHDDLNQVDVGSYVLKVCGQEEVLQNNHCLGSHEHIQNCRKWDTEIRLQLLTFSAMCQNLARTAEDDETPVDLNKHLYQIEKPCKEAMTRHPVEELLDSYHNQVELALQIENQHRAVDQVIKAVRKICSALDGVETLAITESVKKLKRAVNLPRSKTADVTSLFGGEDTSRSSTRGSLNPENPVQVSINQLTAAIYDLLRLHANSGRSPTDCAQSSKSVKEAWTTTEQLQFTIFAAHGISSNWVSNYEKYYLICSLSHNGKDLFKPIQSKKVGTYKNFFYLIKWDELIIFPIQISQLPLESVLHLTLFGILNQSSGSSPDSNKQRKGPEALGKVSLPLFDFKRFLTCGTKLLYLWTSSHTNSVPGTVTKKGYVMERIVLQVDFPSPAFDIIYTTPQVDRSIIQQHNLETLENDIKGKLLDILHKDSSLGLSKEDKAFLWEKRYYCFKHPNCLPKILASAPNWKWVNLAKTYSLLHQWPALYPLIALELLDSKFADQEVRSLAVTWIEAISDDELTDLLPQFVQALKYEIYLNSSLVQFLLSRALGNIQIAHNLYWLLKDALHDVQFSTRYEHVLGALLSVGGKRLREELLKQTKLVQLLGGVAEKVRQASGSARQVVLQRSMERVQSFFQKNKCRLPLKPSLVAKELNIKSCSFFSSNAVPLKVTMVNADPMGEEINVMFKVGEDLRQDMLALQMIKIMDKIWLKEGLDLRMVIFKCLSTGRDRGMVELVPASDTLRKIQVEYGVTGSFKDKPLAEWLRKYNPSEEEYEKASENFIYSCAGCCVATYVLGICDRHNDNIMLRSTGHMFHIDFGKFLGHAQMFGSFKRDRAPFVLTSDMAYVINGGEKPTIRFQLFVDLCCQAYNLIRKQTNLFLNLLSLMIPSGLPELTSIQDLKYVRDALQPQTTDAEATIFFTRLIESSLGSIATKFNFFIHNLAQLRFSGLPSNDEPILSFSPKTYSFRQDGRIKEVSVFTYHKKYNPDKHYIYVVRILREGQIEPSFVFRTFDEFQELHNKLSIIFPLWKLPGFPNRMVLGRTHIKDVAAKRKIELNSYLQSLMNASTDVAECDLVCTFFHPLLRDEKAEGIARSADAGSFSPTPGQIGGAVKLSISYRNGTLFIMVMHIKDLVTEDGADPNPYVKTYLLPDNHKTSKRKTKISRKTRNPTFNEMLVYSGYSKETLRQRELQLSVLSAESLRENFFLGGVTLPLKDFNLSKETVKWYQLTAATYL

For the compound `O=C(CSc1nc2nccnc2c(=O)n1CCc1ccccc1)Nc1nccs1` [Example Compound 11, 2-((4-Oxo-3-phenethyl-3,4-dihydropteridin-2-yl)thio)-N-(thiazol-2-yl)acetamide], the IC50 at PI3KC2α Δ1-298 (listed as C2a_Inh3, read-out: IC50 for PI3KC2α inhibition) was 100 nM; on PI3KC2α Δ1-298 (setting [4]) it was 100 nM. Besides, the “specificity in kinase panel” value in test [1] is “specifically inhibited class II PI3Ks; also recorded: relatively high off-targeting activity towards other class II kinase isoforms”. Further, the “CCP lifetime (CCP dynamics)” value in test [2] (listed as C2a_Inh3) was “increased CCP-lifetimes”; in test [2] (listed as C2a_Inh_3), “increase of lifetime”. Besides, the “SNX9 AS recruitment to membrane / membrane tubules” value in test [3] (listed as C2a_Inh3) is “reduced the recruitment of SNX9 to the membrane”; in test [3] (listed as C2a_inh_3), “remained largely cytosolic”.

On to `CC(C)(C)OC(=O)N1CCC(n2c(SCC(=O)Nc3nccs3)nc3nccnc3c2=O)CC1` [Example Compound 93, tert-Butyl 4-(4-oxo-2-((2-oxo-2-(thiazol-2-ylamino)ethyl)thio)pteridin-3(4H)-yl)piperidine-1-carboxylate], for which the IC50 on PI3KC2α Δ1-298 (setting [4]) came to 3600 nM.

As for `CC(C)(C)OC(=O)N1CCC(n2c(SCc3nc4ccccc4[nH]3)nc3nccnc3c2=O)CC1` [Example Compound 94, tert-Butyl 4-(2-(((1H-benzo[d]imidazol-2-yl)methyl)thio)4-oxopteridin-3(4H)-yl)piperidine-1-carboxylate], the IC50 at PI3KC2α Δ1-298 (setting [4]) is 1200 nM.

As for `O=C(CSc1nc2nccnc2c(=O)n1CCc1ccc(O)cc1)Nc1nccs1` [Example Compound 95, 2-((3-(4-Hydroxyphenethyl)-4-oxo-3,4-dihydropteridin-2-yl)thio)-N-(thiazol-2-yl)acetamide], the IC50 on PI3KC2α Δ1-298 (setting [4]) was 210 nM.

`O=c1c2nccnc2nc(SCc2nc3ccccc3[nH]2)n1CCc1ccc(O)cc1` [Example Compound 96, 2-(((1H-Benzo[d]imidazol-2-yl)methyl)thio)-3-(4-hydroxyphenethyl)pteridin-4(3H)-one]: the IC50 at PI3KC2α Δ1-298 (setting [4]) is 100 nM.

Consider `O=C(CCc1nc2nccnc2c(=O)n1CCc1ccccc1)Nc1ccccc1` [Example Compound 100, 3-(4-Oxo-3-phenethyl-3,4-dihydropteridin-2-yl)-N-phenylpropanamide], for which, at PI3KC2α Δ1-298, the inhibition at 10 µM turned out to be 31%.

In the case of `O=C(CCc1nc2nccnc2c(=O)n1CCc1ccccc1)NCc1ccccc1` [Example Compound 101, N-Benzyl-3-(4-oxo-3-phenethyl-3,4-dihydropteridin-2-yl)propanamide], the inhibition at 10 µM on PI3KC2α Δ1-298 amounted to 28%.

As to `O=C(CCc1nc2nccnc2c(=O)n1CCc1ccccc1)NCCc1ccccc1` [Example Compound 102, 3-(4-Oxo-3-phenethyl-3,4-dihydropteridin-2-yl)-N-phenethylpropanamide], the inhibition at 10 µM on PI3KC2α Δ1-298 was 36%.

(Values after US12247029B2, “Heterocyclic compounds as class II phosphoinositide 3-kinase inhibitors” (Forschungsverbund Berlin e.V., priority 2018, dated 2025).)
